Assays:
[1] = tested on: AI-2 activity of O8; test: AI-2 bioluminescence indicator assay, APEC O8; assay type: cell-based, avian pathogenic E. coli (APEC) O8; conditions: Escherichia coli, read-out: % Inhibtion of AI-2 activity, serotype O8, bioluminescence vs DMSO treated control
Experimental: (§1) Overnight culture of APEC O78 prepared in LB broth was adjusted to an optical density (OD600) of 0.05 (7 × 10^7 CFU/mL) in fresh LB broth. One hundred micro-liters of the culture was transferred to a 96-well plate and 1µL (100 μM final concentration) of the compound was added to each well using a pin tool. Chloramphenicol (40 μg/mL) or kanamycin (30 μg/mL) and 1μL of 100% DMSO were included as controls in each plate. Plates were incubated at 37 °C for 10 h with shaking in a Sunrise^TM Tecan plate reader (Tecan Group Ltd. San Jose, CA, USA) and the growth was kinetically monitored every 30 min by measuring the OD at 600 nm.
(§2) The AI-2 bioluminescence assay was performed as described previously. Briefly, APEC O78 cultures grown in the presence of SMs (see above) were centrifuged at 5000 × g for 10 min, and cell-free culture supernatants were prepared by using a 0.22 µm filter 96 well plate (Millipore). The bioluminescence reporter V. harveyi BB170 (AI-1^+ and AI-2^-) was grown overnight in AB medium at 30 °C aerobically with shaking. The overnight culture was diluted to 1:5000 in fresh AB medium and incubated at 30 °C for 3 h. Following incubation, 180 μL of the V. harveyi BB170 culture was distributed into each well of a 96-well plate and mixed with 20 µL of the cell free culture supernatant, the plate was then incubated at 30 °C for 2.5 h in the dark and the bioluminescence was measured using in vivo imaging system (IVIS Lumina Series III, PerkinElmer, USA). […] Cell-free culture supernatants collected from overnight cultures of V. harveyi BB120 (AI-1^+andAI-2^+) and E. coli DH5α (a strain lacks AI-2) were used as controls. Bioluminescence of SMs treated culture supernatants were compared to DMSO treated control. The Z-score was calculated to evaluate the quality of the bioluminescence screening. Four independent experiments were conducted for the 69 compounds that inhibited ≥ 75% of the AI-2 mediated bioluminescence and the average inhibition percentage was calculated.
(§3) The selected compounds were also tested for inhibition of AI-2 production in other APEC serotypes such as O1, O2, O8, O15, O18, O35, O109, and O115 that are commonly implicated in colibacillosis using the same procedure described above.

[2] = tested on: APEC O78 in HD-11 cells; test: Intracellular survival assay, APEC O78 in HD-11 cells; assay type: cell-based, avian pathogenic E. coli (APEC) O78; conditions: MOI 100, 100 µM, 6 h; for reduction of intracellular survival of APEC O78: vs DMSO treated control
Experimental: (§4) The effect of the selected AI-2 inhibitors on the survival of APEC in macrophage cells was tested as described before. Briefly, HD-11 cells was grown as described above and infected with 1 × 10^7 CFU (MOI = 100) of mid-log phase APEC strains (O78, O1 and O2) at 37 °C for 1 h. Cells were washed with PBS and treated with gentamicin (150 μg/mL) for 1 h to kill the extracellular bacteria. The cells were then washed and incubated with 100 µM of each compound in media containing 10 μg/mL of gentamicin at 37 °C for 6 h. Following treatment, cells were washed, lysed with 0.1% Triton X-100 for 5 min, ten-fold serially diluted in PBS and plated on LB agar plates to determine CFUs. Cells treated with chloramphenicol (40 μg/mL) and 1 μL of 100% DMSO were used as controls. The experiment was conducted two times with four replicates in each experiment. Intracellular survival was expressed as the log change of APEC CFUs in the AI-2 inhibitors treated cells.

[3] = tested on: APEC O2 in HD-11 cells; test: Intracellular survival assay, APEC O2 in HD-11 cells; assay type: cell-based, avian pathogenic E. coli (APEC) O2; conditions: MOI 100, 100 µM, 6 h; for reduction of intracellular survival of APEC O2: vs DMSO treated control
Experimental: as §4

[4] = tested on: AI-2 activity of APEC O2; test: AI-2 bioluminescence indicator assay, APEC O2; assay type: cell-based, avian pathogenic E. coli (APEC) O2; conditions: Escherichia coli, read-out: % Inhibtion of AI-2 activity
Experimental: as §1, §2, §3

[5] = tested on: Caco-2 cells; test: Lactate dehydrogenase (LDH) cytotoxicity assay, Caco-2; assay type: cell-based, human; conditions: 100 µM, 24 h
Experimental: The selected 10 AI-2 inhibitors were evaluated for their toxicity to Caco-2 (ATCC® HTB-37™) using LDH assay. Briefly, Caco-2 cells (1.4 × 10^5 cells/well) were grown in a 96-well plate in minimal essential medium (MEM) supplemented with 20% fetal bovine serum (FBS; Gibco), 1% non-essential amino acid (NEAA, Invitrogen Life Technologies) and 1mM sodium pyruvate, at 37 °C in a humidified 5% CO2 incubator for 48 h until a complete monolayer was formed. For LDH assay, cells were washed twice with media containing no FBS/no antibiotics and incubated with 150 µL of fresh media containing 100 μM of each compound at 37 °C for 24 h in a humidified 5% CO2 incubator. Fifty microliters of supernatant was analyzed using LDH Cytotoxicity Assay Kit (Thermo Scientific).

[6] = tested on: G. mellonella larvae infected with APEC O78; test: Wax moth (G. mellonella) larva infection model; assay type: in vivo, Galleria mellonella; conditions: for increase in larval survival: 12.5 µg/larva (50 mg/kg), APEC O78 4.25 × 10^4 CFU, 72 h, vs DMSO treated controls; for clearance of APEC in surviving larvae / reduction of bacterial load in surviving larvae: live larvae at 72 h; for reduction of bacterial load in surviving larvae: in comparison to dead larvae
Experimental: G. mellonella caterpillars (larvae) in the final instar stage (fifth instar) were obtained from Vanderhorst, Inc. (St. Mary’s, Ohio, USA), stored in wood shavings in a petri dish in the dark and used within 7 days of receiving. Larvae with 15–25 mm length, 250–350 mg weight, having a creamy color with minimal speckling and no grey markings were used in this study. The infection was performed as described previously. For the inoculation, AI-2 inhibitors were diluted in a buffer mix (30% DMSO plus 10 mM MgSO4) as described previously and each larva (n = 10) was inoculated with 8.5 µL (50 mg/kg; 12.5 µg/larva) of the AI-2 inhibitors into the hemocoel via the last left proleg using PB600-1 repeating dispenser (Hamilton) attached to insulin syringe (31 gauge, 8 mm needle length; ReliOn). Larvae were placed inside sterile petri dishes and incubated for 2 h in the dark at 37 °C. Then, larvae were infected with 8.5 µL of (4.25 × 10^4 CFU) of Rif^R APEC O78 in 10 mM MgSO4 on the right hind proleg. Rif^R APEC O78 was generated as described above by plating APEC on LB agar plate containing 50 µg/ mL rifampicin for specific monitoring of APEC population inside the larvae. […] Infection dose of Rif^R APEC O78 to larvae was identified based on preliminary study (Figure S1). Larvae were incubated at 37°C in the dark and the survival was monitored daily for 72 h. Infected larvae treated with buffer mix and 75 mg/kg of chloramphenicol were used as controls.
For the quantification of APEC inside the larvae, dead and live larvae were surface sterilized with 70% ethanol, homogenized in PBS. The suspension was tenfold serially diluted and plated on MacConkey agar plates supplemented with 50 µg/mL of rifampicin. The plates were then incubated overnight at 37 °C and APEC load was enumerated. Two independent experiments were conducted using larvae (n = 10) obtained in different batches.

## Fc1ccc(CN2CCCN(Cc3nc(-c4ccc(C(F)(F)F)cc4)no3)CC2)cc1 [C9, 1-(4-fluorobenzyl)-4-({3-[4-(trifluoromethyl)phenyl]-1,2,4-oxadiazol-5-yl}methyl)-1,4-diazepane]
[1]
  inhibition at 100 µM: 20%
[2]
  clearance of intracellular APEC O78: 100%
  reduction of intracellular survival of APEC O78: ~ 4 logs
[3]
  clearance of intracellular APEC O2: 100%
  reduction of intracellular survival of APEC O2: ~ 3.3 logs
[4]
  inhibition at 100 µM: 51%

## O=[N+]([O-])c1cccc(S(=O)(=O)Nc2ccc(Br)cc2)c1 [C6, N-(4-bromophenyl)-3-nit robenzenesulfonamide]
[1]
  inhibition at 100 µM: ≥ 75%
[5]
  cytotoxicity (LDH release): 27%
[3]
  clearance of intracellular APEC O2: 100%
  reduction of intracellular survival of APEC O2: ~ 3.3 logs
[6]
  larval death at 48 h post treatment (in words): no larval death
[4]
  inhibition at 100 µM: 93%

## COCCN1CCC(CN(Cc2ccncc2)Cc2ccccc2Cl)CC1 [C1, (2-chlorobenzyl){[1-(2-methoxyethyl)-4-piperidinyl]methyl}(4-pyridinylmethyl)amine]
[1]
  inhibition at 100 µM: 20%
[6]
  increase in larval survival: 23%
  larval death at 72 h post treatment (in words): no larval death
[4]
  inhibition at 100 µM: 94%

## NC(=O)c1ccccc1Nc1cccc(C(F)(F)F)c1 [C3, 2-{[3-(trifluoromethyl)phenyl]amino}benzamide]
[1]
  inhibition at 100 µM: 39%
[4]
  inhibition at 100 µM: 54%

## CS/C(N)=N/N=C/c1cc(C)ccc1O [C4, methyl N'-(2-hydroxy-5-methylbenzylidene)h ydrazonothiocarbamate]
[1]
  inhibition at 100 µM: 0%
[2]
  reduction of intracellular survival of APEC O78: up to 1 logs
[5]
  cytotoxicity (LDH release): 12%
[3]
  reduction of intracellular survival of APEC O2: up to 0.8 logs
[4]
  inhibition at 100 µM: 76%

## OCCC1CN(C2CCN(c3ccccc3)CC2)CCN1CCCc1ccccc1 (centres unmarked) [C10, 2-[4-(1-phenyl-4-piperidinyl)-1-(3-phenylpropyl)-2-piperazinyl]ethanol]
[1]
  inhibition at 100 µM: 0%
[2]
  clearance of intracellular APEC O78: 100%
  reduction of intracellular survival of APEC O78: ~ 4 logs
[5]
  cytotoxicity (LDH release): 27%
[3]
  clearance of intracellular APEC O2: 100%
  reduction of intracellular survival of APEC O2: ~ 3.3 logs
[4]
  inhibition at 100 µM: 89%

## O=C(CCN1CCN(c2ccccc2F)CC1)Nc1ccc(Br)cc1 [C7, N-(4-bromophenyl)-3-[4-(2-fluorophenyl)-1-piperazinyl]propanamide]
[1]
  inhibition at 100 µM: 2%
[3]
  reduction of intracellular survival of APEC O2: up to 0.8 logs
[6]
  larval death at 72 h post treatment (in words): no larval death
[4]
  inhibition at 100 µM: 83%

## CCc1ccccc1Nc1nc(-c2c(C)nc3ccccn23)cs1 [C8, N-(2-ethylphenyl)-4-(2-methylimidazo[1,2-a]pyridin-3-yl)-1,3-thiazol-2-amine]
[1]
  inhibition at 100 µM: 18%
[2]
  reduction of intracellular survival of APEC O78: up to 1 logs
[5]
  cytotoxicity (LDH release): 2%
[3]
  reduction of intracellular survival of APEC O2: up to 0.8 logs
[6]
  larval death at 48 h post treatment (in words): no larval death
  clearance of APEC in surviving larvae: 100%
  reduction of bacterial load in surviving larvae: up to 5 logs
[4]
  inhibition at 100 µM: 94%

## Cc1ccc(CN2CCN(CCCc3ccccc3)CC2)cc1 [C5, 1-(4-methylbenzyl)-4-(3-phenylpropyl)piperazine]
[1]
  inhibition at 100 µM: 18%
[3]
  clearance of intracellular APEC O2: 100%
  reduction of intracellular survival of APEC O2: ~ 3.3 logs
[6]
  larval death at 48 h post treatment (in words): no larval death
[4]
  inhibition at 100 µM: 89%

## Cc1ccccc1N1CCN(C2CCCN(C(=O)c3ccc(F)c(Cl)c3)C2)CC1 (centres unmarked) [C2, 1-[1-(3-chloro-4-fluorobenzoyl)-3-piperidinyl]-4-(2-methylphenyl)piperazine]
[1]
  inhibition at 100 µM: 20%
[6]
  increase in larval survival: 30%
  larval death at 48 h post treatment (in words): no larval death
  clearance of APEC in surviving larvae: 100%
  reduction of bacterial load in surviving larvae: up to 5 logs
[4]
  inhibition at 100 µM: 96%

— paper PMC7000209, “Novel small molecule modulators of quorum sensing in avian pathogenic Escherichia coli (APEC)” (Virulence, 2018)
